The record followed here is patent US20100267784A1, “NOVEL 4,5-DIHYDROISOXAZOLES WITH ESTROGENIC ACTIVITY” (priority 2007, published 2010).

Data set [1] concerns the target T1, ERα (Homo sapiens, UniProt P03372).
T1 sequence (P03372 1-595): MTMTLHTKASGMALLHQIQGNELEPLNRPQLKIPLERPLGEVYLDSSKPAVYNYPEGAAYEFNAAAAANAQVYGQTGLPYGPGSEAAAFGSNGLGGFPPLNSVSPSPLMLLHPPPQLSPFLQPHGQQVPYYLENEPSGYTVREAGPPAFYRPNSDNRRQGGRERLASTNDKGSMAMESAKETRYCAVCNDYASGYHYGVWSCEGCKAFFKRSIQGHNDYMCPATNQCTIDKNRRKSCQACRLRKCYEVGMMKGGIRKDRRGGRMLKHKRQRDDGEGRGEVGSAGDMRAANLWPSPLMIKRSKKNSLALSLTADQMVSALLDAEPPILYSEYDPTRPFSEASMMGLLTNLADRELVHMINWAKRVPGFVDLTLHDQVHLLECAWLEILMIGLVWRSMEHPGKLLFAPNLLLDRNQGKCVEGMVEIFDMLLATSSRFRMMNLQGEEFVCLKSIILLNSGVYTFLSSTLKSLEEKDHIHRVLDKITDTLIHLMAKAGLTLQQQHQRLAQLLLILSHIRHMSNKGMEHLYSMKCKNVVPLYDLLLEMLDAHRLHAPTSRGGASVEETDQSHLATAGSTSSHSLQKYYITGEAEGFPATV
Kind of data set: Competitive binding against [6,7-3H(N)]estradiol in COS-1 cells transfected with human ERα. The following applies: for IC50: ERα IC50, COS-1 cells, competition against labeled E2, 2 hours at 37° C.; for ERα RBA (relative binding affinity): relative to E2 = 100.0.
Description: (§2) Determination of Relative Binding Affinity (RBA).
(§3) Relative binding affinities (RBA) were measured by a competitive assay against [6,7-^3H(N)]estradiol (PerkinElmer) in transsiently transfected COS-1 cells. […] After 2 hours of incubation at 37° C. the medium was removed. The cells were removed from the wells to 150 μl of 1× phosphate buffered saline (PBS), transferred to Eppendorf tubes and centrifuged at 4° C. using 4000 g for 5 min, and then washed twice with 150 μl of PBS. The cell pellets were dissolved to 50 μl of 0.5M NaOH and incubated for 15 min at 56° C., after which the samples were transferred to liquid twinkle tubes and treated with 3 ml of OptiPhase HiSafe 3 twinkle solution (PerkinElmer).

Data set [2] has as its target T2, ERβ (Homo sapiens, UniProt Q92731). The experiment in a line: ERβ reporter (luciferase) transactivation assay in transfected HEK293 cells. The format is cell-based. On the set-up: expressed in transfected cells; host or cells: HEK293. The settings on record: for ERβ receptor activation relative to 10 nM E2 corresponding 100: sample concentration 10 μM, 24 hours, mean of at least three independent transfections. The method, boiled down:
(§1)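 Compounds at 10 μM (or 0.1% vehicle) were applied for 24 hours to HEK293 cells previously transfected with an ERα or ERβ expression plasmid plus ERE-luciferase reporter and β-gal control. Lysate luciferase and β-galactosidase activities were read. Cells were grown in phenol-free, delipidated-serum medium; data are means ±SEM from at least three independent transfections.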

Data set [3] addresses T1, ERα. Kind of data set: ERα reporter (luciferase) transactivation assay in transfected HEK293 cells. The settings on record: sample concentration 10 μM, 24 hours, mean of at least three independent transfections. The format is cell-based. More on the design: expressed in transfected cells; host or cells: HEK293. A digest of the protocol:
as §1

The target of data set [4] is T2, ERβ. Kind of data set: Competitive binding against [6,7-3H(N)]estradiol in COS-1 cells transfected with human ERβ. The following applies: for IC50: ERβ IC50, COS-1 cells, competition against labeled E2, 2 hours at 37° C.; for ERβ RBA (relative binding affinity): relative to E2 = 100.0.
Description: as §2, §3

T2 sequence (Q92731 whole entry): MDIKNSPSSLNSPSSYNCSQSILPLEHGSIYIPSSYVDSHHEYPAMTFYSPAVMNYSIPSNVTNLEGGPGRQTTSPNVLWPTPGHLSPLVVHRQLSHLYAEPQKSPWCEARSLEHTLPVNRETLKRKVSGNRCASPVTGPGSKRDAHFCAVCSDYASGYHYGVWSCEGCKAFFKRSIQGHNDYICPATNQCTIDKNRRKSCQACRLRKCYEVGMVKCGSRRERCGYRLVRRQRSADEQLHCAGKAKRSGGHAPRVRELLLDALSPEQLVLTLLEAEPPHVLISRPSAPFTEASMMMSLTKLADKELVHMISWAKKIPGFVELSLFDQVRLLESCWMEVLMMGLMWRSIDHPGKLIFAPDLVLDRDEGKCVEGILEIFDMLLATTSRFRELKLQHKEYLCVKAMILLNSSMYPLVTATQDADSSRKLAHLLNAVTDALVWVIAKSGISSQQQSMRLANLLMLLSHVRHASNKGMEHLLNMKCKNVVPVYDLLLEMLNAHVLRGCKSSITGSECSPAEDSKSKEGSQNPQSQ

Take `Oc1ccc(CCC2=NOC(Cc3ccccc3)C2)cc1` (single isomer, unassigned) [93b, 5-Benzyl-3-[2-(4-hydroxy-phenyl)-ethyl]-4,5-dihydro-isoxazole]: at ERα [1], the IC50 amounted to 2150 nM and the “ERα RBA (relative binding affinity)” value is given as 0.091%. The “ERβ receptor activation relative to 10 nM E2 corresponding 100” value at ERβ [2] is on record as 41.5%. Also, on ERα [3], the “ERα receptor activation relative to 10 nM E2 corresponding 100” value amounted to 24.3%. Further, on ERβ [4], the IC50 came out at 1090 nM and the “ERβ RBA (relative binding affinity)” value was 0.180%.

In the case of `Oc1ccc(CCC2=NOC(Cc3ccccc3)C2)cc1` (single isomer, unassigned) [93a, 5-Benzyl-3-[2-(4-hydroxy-phenyl)-ethyl]-4,5-dihydro-isoxazole], at ERα [1], the IC50 came out at 215 nM and the “ERα RBA (relative binding affinity)” value is 0.912%. The “ERβ receptor activation relative to 10 nM E2 corresponding 100” value at ERβ [2] came out at 143.1%. The “ERα receptor activation relative to 10 nM E2 corresponding 100” value at ERα [3] is 171.1%. On ERβ [4], the IC50 was 1250 nM and the “ERβ RBA (relative binding affinity)” value was 0.157%.

For the compound `CC1(c2ccccc2)CC(CCCc2ccc(O)cc2)=NO1` (single isomer, unassigned) [90b, 3-[3-(4-Hydroxy-phenyl)-propyl]-5-methyl-5-phenyl-4,5-dihydro-isoxazole], on ERα [1], the IC50 is 23000 nM and the “ERα RBA (relative binding affinity)” value was 0.009%. In addition, on ERβ [2], the “ERβ receptor activation relative to 10 nM E2 corresponding 100” value amounted to 30.1%. The “ERα receptor activation relative to 10 nM E2 corresponding 100” value at ERα [3] is 86.5%. In addition, on ERβ [4], the IC50 came out at 20000 nM and the “ERβ RBA (relative binding affinity)” value is listed as 0.010%.

As for `CCc1ccc(CC2CC(c3ccc(Cl)cc3)=NO2)cc1` (stereo not drawn) [compound 34, 3-(4-Chlorophenyl)-5-(4-ethylbenzyl)-4,5-dihydroisoxazole], the melting point was in the range of 117.1 to 119.2 °C.

In the case of `c1ccc(CCCC2=NOC(c3ccccc3)C2)cc1` (single isomer, unassigned) [113b, 5-Phenyl-3-(3-phenyl-propyl)-4,5-dihydro-isoxazole], on ERα [1], the IC50 worked out at 5600 nM and the “ERα RBA (relative binding affinity)” value is reported as 0.035%. Also, on ERβ [2], the “ERβ receptor activation relative to 10 nM E2 corresponding 100” value is listed as 17.2%. Besides, the “ERα receptor activation relative to 10 nM E2 corresponding 100” value at ERα [3] was 11.5%. In addition, at ERβ [4], the IC50 worked out at 5400 nM and the “ERβ RBA (relative binding affinity)” value came out at 0.036%.

Consider `Oc1ccc(CCCC2=NOC(c3ccccc3)C2)cc1` (single isomer, unassigned) [88b, 3-[3-(4-Hydroxy-phenyl)-propyl]-5-phenyl-4,5-dihydroisoxazole], for which, on ERα [1], the IC50 amounted to 30 nM and the “ERα RBA (relative binding affinity)” value is listed as 6.533%. The “ERβ receptor activation relative to 10 nM E2 corresponding 100” value on ERβ [2] is 77.1%. The “ERα receptor activation relative to 10 nM E2 corresponding 100” value on ERα [3] was found to be 65.0%. Moreover, on ERβ [4], the IC50 was 1250 nM and the “ERβ RBA (relative binding affinity)” value stood at 0.157%.

Take `COc1ccc(C2=NOC(Cc3ccc(OC)c(OC)c3)C2)cc1` (stereo not drawn) [16ab, 5-(3,4-Dimethoxybenzyl)-3-(4-methoxyphenyl)-4,5-dihydroisoxazole]: the melting point lay within 88.1 to 89.2 °C. For the same compound, the activation at 10 µM at ERβ [2] (HEK293, 24 h, read-out: ERβ receptor activation relative to 10 nM E2 corresponding 100, sample concentration 10 μM, mean of at least three independent transfections) was determined as 7.3%. The “ERα receptor activation relative to 10 nM E2 corresponding 100” value at ERα [3] is −4.0%.

Turning to `Clc1ccc(C2=NOC(Cc3ccccc3)C2)cc1` (stereo not drawn) [compound 33, 5-Benzyl-3-(4-Chlorophenyl)-4,5-dihydroisoxazole], the melting point lay in the range of 128.2 to 129.4 °C.

The compound `COc1ccc(CC2CC(c3ccc(Cl)cc3)=NO2)cc1` (stereo not drawn) [compound 38, 3-(4-Chlorophenyl)-5-(4-methoxybenzyl)-4,5-dihydroisoxazole] showed a melting point of 126.2 to 127.3 °C.

The compound `COc1ccccc1C1=NOC(Cc2ccccc2)C1` (stereo not drawn) [compound 6, 5-Benzyl-3-(2-methoxyphenyl)-4,5-dihydroisoxazole] displayed a melting point of 81 to 82 °C.

`COc1cccc(C2=NOC(Cc3ccccc3)(c3ccccc3)C2)c1` (stereo not drawn) [compound 77, 5-Benzyl-5-phenyl-3-(3-methoxyphenyl)-4,5-dihydro-isoxazole] had a melting point of 94.4 to 95.2 °C.

For `CC1(Cc2ccccc2)CC(c2ccc3ccccc3c2)=NO1` (stereo not drawn) [compound 57, 5-Benzyl-3-naphthalen-2-yl-5-methyl-4,5-dihydro-isoxazole], the melting point is 144.8 to 146.3 °C.

Compound `COc1ccccc1CC1CC(c2ccc(Cl)cc2)=NO1` (stereo not drawn) [compound 36, 3-(4-Chlorophenyl)-5-(2-methoxybenzyl)-4,5-dihydroisoxazole] showed a melting point of 109.9 to 111.2 °C.

`Fc1ccc(C2=NOC(CCc3ccccc3)C2)cc1` (stereo not drawn) [compound 62, 3-(4-Fluoro-phenyl)-5-phenethyl-4,5-dihydro-isoxazole] had a melting point of 69.8 to 71.2 °C.

`COc1ccc(CC2CC(c3c(Cl)cccc3Cl)=NO2)cc1` (stereo not drawn) [compound 43, 3-(2,6-Dichlorophenyl)-5-(4-methoxybenzyl)-4,5-dihydroisoxazole] registered a melting point of 90.1 to 90.6 °C.

Compound `Clc1ccc(C2=NOC(CCc3ccccc3)C2)cc1` (stereo not drawn) [compound 63, 3-(4-Chloro-phenyl)-5-phenethyl-4,5-dihydro-isoxazole] registered a melting point of 74.8 to 75.7 °C.

In turn, `Clc1cccc(Cl)c1C1=NOC(Cc2ccccc2)C1` (stereo not drawn) [compound 42, 5-Benzyl-3-(2,6-dichlorophenyl)-4,5-dihydroisoxazole] came in with a melting point of 90 to 90.5 °C.

In turn, `Fc1ccccc1C1=NOC(Cc2ccccc2)(c2ccccc2)C1` (stereo not drawn) [compound 75, 5-Benzyl-3-(2-fluorophenyl)-5-phenyl-4,5-dihydro-isoxazole] gave a melting point of 134.3 to 135.2 °C.

Take `CC1(c2ccccc2)CC(CCCc2ccc(O)cc2)=NO1` (single isomer, unassigned) [90a, 3-[3-(4-Hydroxy-phenyl)-propyl]-5-methyl-5-phenyl-4,5-dihydro-isoxazole]: at ERα [1], the IC50 is 250 nM and the “ERα RBA (relative binding affinity)” value is 0.784%. Besides, the “ERβ receptor activation relative to 10 nM E2 corresponding 100” value at ERβ [2] was 64.8%. The “ERα receptor activation relative to 10 nM E2 corresponding 100” value on ERα [3] was found to be 88.8%. For the same compound, at ERβ [4], the IC50 is 3100 nM and the “ERβ RBA (relative binding affinity)” value was found to be 0.063%.

With `c1ccc(CCCC2=NOC(c3ccccc3)C2)cc1` (single isomer, unassigned) [113a, 5-Phenyl-3-(3-phenyl-propyl)-4,5-dihydro-isoxazole], at ERα [1], the IC50 turned out to be 1900 nM and the “ERα RBA (relative binding affinity)” value is reported as 0.103%. The “ERβ receptor activation relative to 10 nM E2 corresponding 100” value at ERβ [2] is −3.1%. For the same compound, the “ERα receptor activation relative to 10 nM E2 corresponding 100” value on ERα [3] was found to be 44.3%.

In turn, `c1ccc(CCC2=NOC(CCc3ccccc3)C2)cc1` (stereo not drawn) [compound 116, 3,5-Di-phenethyl-4,5-dihydroisoxazole] had a melting point of 56.2 to 58 °C.

In the case of `Oc1ccc(CCCC2=NOC(c3ccccc3)C2)cc1` (single isomer, unassigned) [88a, 3-[3-(4-Hydroxy-phenyl)-propyl]-5-phenyl-4,5-dihydroisoxazole], on ERα [1], the IC50 is 12.5 nM and the “ERα RBA (relative binding affinity)” value was 15.68%. Besides, the “ERβ receptor activation relative to 10 nM E2 corresponding 100” value on ERβ [2] is on record as 44.7%. Besides, on ERα [3], the “ERα receptor activation relative to 10 nM E2 corresponding 100” value amounted to 103.6%. For the same compound, on ERβ [4], the half-inhibitory concentration (IC50) is 2050 nM and the “ERβ RBA (relative binding affinity)” value came out at 0.096%.

Take `c1ccc(CCC2CC(c3ccccc3)=NO2)cc1` (stereo not drawn) [compound 111, 5-Phenethyl-3-phenyl-4,5-dihydroisoxazole]: the melting point lay in the range of 66.1 to 67.2 °C.

As for `Clc1ccc(C2=NOC(Cc3ccccc3)(c3ccccc3)C2)cc1` (stereo not drawn) [compound 76, 5-Benzyl-3-(4-chlorophenyl)-5-phenyl-4,5-dihydro-isoxazole], the melting point lay in the range of 120.3 to 122.1 °C.

Regarding `COc1ccc(C2=NOC(Cc3ccccc3)C2)cc1` (stereo not drawn) [compound 12, 5-Benzyl-3-(4-methoxyphenyl)-4,5-dihydroisoxazole], the melting point fell in the range of 99.6 to 100.3 °C.

As to `c1ccc(CC2CC(c3ccccc3)=NO2)cc1` (stereo not drawn) [compound 107, 5-Benzyl-3-phenyl-4,5-dihydroisoxazole], the melting point is 67 to 68 °C.

Usually IC50 stands for the midpoint of a concentration-inhibition curve. For orientation: melting point means the temperature of the solid-liquid transition.
